For this assay, the target named is T1, RORγ (Homo sapiens, UniProt P51449).
T1 construct: expressed in transfected cells; host or cells: 293FT cells (Invitrogen), expression vector pFN26A (Promega)
T1 sequence (P51449 269-508 limits assumed): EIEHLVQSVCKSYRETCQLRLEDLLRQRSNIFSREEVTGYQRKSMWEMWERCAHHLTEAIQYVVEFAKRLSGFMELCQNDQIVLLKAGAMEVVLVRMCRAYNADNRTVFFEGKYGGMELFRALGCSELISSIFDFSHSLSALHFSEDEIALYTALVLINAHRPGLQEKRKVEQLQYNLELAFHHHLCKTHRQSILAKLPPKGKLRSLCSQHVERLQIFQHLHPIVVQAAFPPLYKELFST
Kind of assay: RORγ GAL4 reporter gene assay. Type of assay: cell-based. Conditions: inhibition of RORγ activity, GAL4-RORγ-LBD luciferase reporter in 293FT cells, overnight incubation; read-out: mean pIC50 (converted). An outline of the steps: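 293FT cells were transiently co-transfected with GAL4-DBD–RORγ-LBD (or GAL4-VP16 control) and a 9×UAS luc2P reporter, then plated at 60,000 cells/well. Compound was added at final 0.2% DMSO for 16-24 h at 37 °C, and inhibition was measured by firefly luciferase luminescence.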
(In general: Reporter assays use an easily measured gene product as a stand-in for the process of interest.)

We go through 31 compounds from patent US10315996B2, “ROR gamma (RORγ) modulators” (LEAD PHARMA HOLDING B.V., priority 2015, dated 2019).

Structures are written as SMILES.

For the compound `CCN(C(=O)c1ccc(NC(=O)Cc2ccc(S(=O)(=O)CC3CC3)cc2)cc1Cl)c1ccccc1` [Example 100, 2-chloro-4-[2-(4-cyclopropylmethanesulfonylphenyl)acetamido]-N-ethyl-N-phenylbenzamide], the IC50 is not above 0.1 µM.

Consider `CCN(C(=O)c1ccc(NC(=O)Cc2ccc(S(=O)(=O)CC3CC3)cc2)c(OC)c1)c1ccccc1` [Example 101, 4-[2-(4-cyclopropylmethanesulfonylphenyl)acetamido]-N-ethyl-3-methoxy-N-phenylbenzamide], for which the IC50 was not above 1 µM.

As for `CCN(C(=O)c1ccc(NC(=O)Cc2ccc(S(=O)(=O)CC3CC3)cc2)c(F)c1)c1ccccc1` [Example 102, 4-[2-(4-cyclopropylmethanesulfonylphenyl)acetamido]-N-ethyl-3-fluoro-N-phenylbenzamide], the IC50 is not above 0.01 µM.

In the case of `O=C(Cc1ccc(S(=O)(=O)CC2CC2)cc1)Nc1ccc(C(=O)N(CC(F)(F)F)c2ccccc2)cc1` [Example 104, 4-[2-(4-cyclopropylmethanesulfonylphenyl)acetamido]-N-phenyl-N-(2,2,2-trifluoroethyl)benzamide], the IC50 is not above 0.01 µM.

As for `CCN(C(=O)c1ccc(NC(=O)Cc2ccc(S(=O)(=O)CC3CC3)cc2)c(C)c1)c1ccccc1` [Example 105, 4-[2-(4-cyclopropylmethanesulfonylphenyl)acetamido]-N-ethyl-3-methyl-N-phenylbenzamide], the IC50 was not above 0.1 µM.

Turning to `CCN(C(=O)c1ccc(NC(=O)Cc2ccc(S(=O)(=O)NC3CC3)cc2)c(C)c1)c1ccccc1` [Example 106, 4-{2-[4-(cyclopropylsuIfamoyl)phenyl]acetamido}-N-ethyl-3-methyl-N-phenylbenzamide], the IC50 was not above 1 µM.

For `CCN(C(=O)c1ccc(NC(=O)Cc2ccc(S(=O)(=O)NC3CC3)cc2)cc1)c1nc(C)c(C)s1` [Example 107, 4-{2-[4-(cyclopropylsulfamoyl)phenyl]acetamido}-N-(4-methyl-5-methyl-1,3-thiazol-2-yl)-N-ethyl-benzamide], the IC50 is not above 0.1 µM.

With `CCN(C(=O)c1ccc(NC(=O)Cc2ccc(S(=O)(=O)CC3CC3)cc2)cc1)c1c(C)noc1C` [Example 108, 4-[2-(4-cyclopropylmethanesulfonylphenyl)acetamido]-N-(dimethyl-1,2-oxazol-4-yl)-N-ethyl-benzamide], the IC50 is not above 0.1 µM.

With `O=C(Cc1ccc(S(=O)(=O)NC2CC2)cc1)Nc1ccc(C(=O)N(CC(F)(F)F)c2ccccc2)cc1` [Example 109, 4-{2-[4-(cyclopropylsulfamoyl)phenyl]acetamido}-N-phenyl-N-(2,2,2-trifluoroethyl) benzamide], the IC50 was not above 0.01 µM.

Take `CCN(C(=O)c1ccc(NC(=O)Cc2ccc(S(=O)(=O)NC3CC3)cc2)cc1)c1c(C)noc1C` [Example 110, 4-{2-[4-(cyclopropylsulfamoyl)phenyl]acetamido}-N-(dimethyl-1,2-oxazol-4-yl)-N-ethylbenzamide]: the IC50 is not above 1 µM.

With `CCN(C(=O)c1ccc(NC(=O)Cc2ccc(S(=O)(=O)NC3CC3)cc2)cc1F)c1ccccc1` [Example 111, 4-{2-[4-(cyclopropylsulfamoyl)phenyl]acetamido}-N-ethyl-2-fluoro-N-phenylbenzamide], the IC50 is not above 1 µM.

`CCN(C(=O)c1ccc(NC(=O)Cc2ccc(S(=O)(=O)NC3CC3)cc2)cc1Cl)c1ccccc1` [Example 112, 2-chloro-4-{2-[4-(cyclopropylsulfamoyl)phenyl]acetamido}-N-ethyl-N-phenylbenzamide]: the IC50 is not above 1 µM.

In the case of `CC(C)(C)N(Cc1ccccc1)C(=O)c1ccc(NC(=O)Cc2ccc(S(=O)(=O)CC3CC3)cc2)cc1` [Example 113, N-benzyl-N-tert-butyl-4-[2-(4-cyclopropylmethanesulfonylphenyl)acetamido]benzamide], the IC50 was not above 0.01 µM.

Turning to `O=C(Cc1ccc(S(=O)(=O)CC2CC2)cc1)Nc1ccc(C(=O)N(c2ccccc2)c2ccc(Br)cc2)cc1` [Example 115, N-(4-bromophenyl)-4-[2-(4-cyclopropylmethanesulfonylphenyl)acetamido]-N-phenylbenzamide], the IC50 was not above 0.1 µM.

As to `Cc1ccccc1N(C)C(=O)c1ccc(NC(=O)Cc2ccc(S(=O)(=O)CC3CC3)cc2)cc1F` [Example 116, 4-[2-(4-cyclopropylmethanesulfonylphenyl)acetamido]-2-fluoro-N-methyl-N-(2-methylphenyl)benzamide], the IC50 was not above 0.1 µM.

In the case of `Cc1ccccc1N(C)C(=O)c1ccc(NC(=O)Cc2ccc(S(=O)(=O)CC3CC3)cc2)cc1Cl` [Example 117, 2-chloro-4-[2-(4-cyclopropylmethanesulfonylphenyl)acetamido]-N-methyl-N-(2-methylphenyl)benzamide], the IC50 was not above 0.01 µM.

Take `CCN(C(=O)c1ccc(NC(=O)Cc2ccc(S(=O)(=O)CC3CC3)cc2)cc1F)c1ccccc1Cl` [Example 118, N-(2-chlorophenyl)-4-[2-(4-cyclopropylmethanesulfonylphenyl)acetamido]-N-ethyl-2-fluorobenzamide]: the IC50 was not above 0.01 µM.

For the compound `CCN(C(=O)c1ccc(NC(=O)Cc2ccc(S(=O)(=O)CC3CC3)cc2)cc1F)c1cccc(C)c1C` [Example 119, 4-[2-(4-cyclopropylmethanesulfonylphenyl)acetamido]-N-(2,3-dimethylphenyl)-N-ethyl-2-fluorobenzamide], the IC50 was not above 0.01 µM.

Regarding `CCN(C(=O)c1ccc(NC(=O)Cc2ccc(S(=O)(=O)CC3CC3)cc2)cc1Cl)c1cccc(C)c1C` [Example 120, 2-chloro-4-[2-(4-cyclopropylmethanesulfonylphenyl)acetamido]-N-(2,3-dimethylphenyl)-N-ethylbenzamide], the IC50 was not above 0.1 µM.

As for `CC(C)(C)C1COc2ccccc2N1C(=O)c1ccc(NC(=O)Cc2ccc(S(=O)(=O)CC3CC3)cc2)cc1` (stereo not shown) [Example 121, N-[4-(3-tert-butyl-3,4-dihydro-2H-1,4-benzoxazine-4-carbonyl)phenyl]-2-(4-cyclopropylmethanesulfonylphenyl)acetamide], the IC50 was not above 0.1 µM.

Take `COc1ccccc1N(C)C(=O)c1ccc(NC(=O)Cc2ccc(S(=O)(=O)CC3CC3)cc2)cc1C` [Example 122, 4-[2-(4-cyclopropylmethanesulfonylphenyl)acetamido]-N-(2-methoxyphenyl)-N,2-dimethylbenzamide]: the IC50 is not above 0.01 µM.

In the case of `O=C(Cc1ccc(S(=O)(=O)CC2CC2)cc1)Nc1ccc(C(=O)N(CC(F)(F)F)c2ccccc2)c(Cl)c1` [Example 123, 2-chloro-4-[2-(4-cyclopropylmethanesulfonylphenyl)acetamido]-N-phenyl-N-(2,2,2-trifluoroethyl)benzamide], the IC50 is not above 0.01 µM.

Consider `COc1ccccc1N(C)C(=O)c1ccc(NC(=O)Cc2ccc(S(=O)(=O)CC3CC3)cc2)cc1F` [Example 124, 4-[2-(4-cyclopropylmethanesulfonylphenyl)acetamido]-2-fluoro-N-(2-methoxyphenyl)-N-methylbenzamide], for which the IC50 was not above 0.01 µM.

For `COc1ccccc1N(C)C(=O)c1ccc(NC(=O)Cc2ccc(S(=O)(=O)CC3CC3)cc2)cc1Cl` [Example 125, 2-chloro-4-[2-(4-cyclopropylmethanesulfonylphenyl)acetamido]-N-(2-methoxyphenyl)-N-methylbenzamide], the IC50 was not above 0.01 µM.

With `CN(C(=O)c1ccc(NC(=O)Cc2ccc(S(=O)(=O)CC3CC3)cc2)cc1F)c1ccccc1F` [Example 126, 4-[2-(4-cyclopropylmethanesulfonylphenyl)acetamido]-2-fluoro-N-(2-fluorophenyl)-N-methylbenzamide], the IC50 is not above 0.01 µM.

In the case of `CN(C(=O)c1ccc(NC(=O)Cc2ccc(S(=O)(=O)CC3CC3)cc2)cc1Cl)c1ccccc1F` [Example 127, 2-chloro-4-[2-(4-cyclopropylmethanesulfonylphenyl)acetamido]-N-(2-fluorophenyl)-N-methylbenzamide], the IC50 is not above 0.01 µM.

With `CCN(C(=O)c1ccc(NC(=O)Cc2ccc(S(=O)(=O)CC3CC3)cc2)cc1Cl)c1ccccc1Cl` [Example 128, 2-chloro-N-(2-chlorophenyl)-4-[2-(4-cyclopropylmethanesulfonylphenyl)acetamido]-N-ethylbenzamide], the IC50 was not above 0.01 µM.

For the compound `CCN(C(=O)c1ccc(NC(=O)Cc2ccc(S(=O)(=O)CC3CC3)cc2)cc1Cl)c1ccccc1C` [Example 129, 2-chloro-4-[2-(4-cyclopropylmethanesulfonylphenyl)acetamido]-N-ethyl-N-(2-methylphenyl)benzamide], the IC50 was not above 0.01 µM.

As to `CC(C)(C)N(C(=O)c1ccc(NC(=O)Cc2ccc(S(=O)(=O)CC3CC3)cc2)cc1)c1ccccc1` [Example 130, N-tert-butyl-4-[2-(4-cyclopropylmethanesulfonylphenyl)acetamido]-N-phenylbenzamide], the IC50 is not above 0.01 µM.

On to `CC(C)(C)N(C(=O)c1ccc(NC(=O)Cc2ccc(S(=O)(=O)NC3CC3)cc2)cc1)c1ccccc1` [Example 131, N-tert-butyl-4-{2-[4-(cyclopropylsulfamoyl)phenyl]acetamido}-N-phenylbenzamide], for which the IC50 is not above 0.01 µM.

Regarding `Cc1ccc(N(C(=O)c2ccc(NC(=O)Cc3ccc(S(=O)(=O)NC4CC4)cc3)cc2)C(C)(C)C2CCCO2)cc1` (stereo not shown) [Example 132, 4-{2-[4-(cyclopropylsulfamoyl)phenyl]acetamido}-N-(4-methylphenyl)-N-[2-(oxolan-2-yl)propan-2-yl]benzamide], the IC50 is not above 0.1 µM.
